Legend:
B-A17 = experiment: Planktonic growth with extract and antibiotic relative to growth without both (Example 14); type: cell-based
Experimental: (§1) Starting from the herbal composition, the corresponding water extracts (or processed samples) was prepared according to the previously described Method B using 2.06 g of the above herbal composition with 40 mL water with 100 g/L sucrose for water extraction and including the decantation step before filtration. In an independent water extract preparation without sucrose, it has been measured that 2.06 g/40 mL of herbal composition corresponds to 14.5 g/L as deduced from the weight of the lyophilized dry herbal extract.
(§2) In Example 14 we calculate the growth of the bacteria in presence of antibiotic and/or herbal mix relative to the growth in the absence of both antibiotic and herbal mix extract.

B-A21 = experiment: as above; type: cell-based
Experimental: as §1, §2

[1] = M[20C]-576 0 μg/mL, antibiotic 3.91 μg/mL
[2] = M[20C]-576 0 μg/mL, antibiotic 7.81 μg/mL
[3] = M[20C]-576 0 μg/mL, antibiotic 15.63 μg/mL
[4] = M[20C]-576 0 μg/mL, antibiotic 31.25 μg/mL
[5] = M[20C]-576 0 μg/mL, antibiotic 62.50 μg/mL
[6] = M[20C]-576 0 μg/mL, antibiotic 125 μg/mL
[7] = M[20C]-576 0 μg/mL, antibiotic 250 μg/mL
[8] = M[20C]-576 0 μg/mL, antibiotic 500 μg/mL
[9] = M[20C]-576 0 μg/mL, antibiotic 1000 μg/mL
[10] = M[20C]-576 0 μg/mL, antibiotic 2000 μg/mL
[11] = M[20C]-576 0 μg/mL, antibiotic 4000 μg/mL
[12] = M[20C]-576 90.6 μg/mL, antibiotic 3.91 μg/mL
[13] = M[20C]-576 90.6 μg/mL, antibiotic 7.81 μg/mL
[14] = M[20C]-576 90.6 μg/mL, antibiotic 15.63 μg/mL
[15] = M[20C]-576 90.6 μg/mL, antibiotic 31.25 μg/mL
[16] = M[20C]-576 90.6 μg/mL, antibiotic 62.50 μg/mL
[17] = M[20C]-576 90.6 μg/mL, antibiotic 125 μg/mL
[18] = M[20C]-576 90.6 μg/mL, antibiotic 250 μg/mL
[19] = M[20C]-576 90.6 μg/mL, antibiotic 500 μg/mL
[20] = M[20C]-576 90.6 μg/mL, antibiotic 1000 μg/mL
[21] = M[20C]-576 90.6 μg/mL, antibiotic 2000 μg/mL
[22] = M[20C]-576 90.6 μg/mL, antibiotic 4000 μg/mL
[23] = M[20C]-576 181.3 μg/mL, antibiotic 3.91 μg/mL
[24] = M[20C]-576 181.3 μg/mL, antibiotic 7.81 μg/mL
[25] = M[20C]-576 181.3 μg/mL, antibiotic 15.63 μg/mL
[26] = M[20C]-576 181.3 μg/mL, antibiotic 31.25 μg/mL
[27] = M[20C]-576 181.3 μg/mL, antibiotic 62.50 μg/mL
[28] = M[20C]-576 181.3 μg/mL, antibiotic 125 μg/mL
[29] = M[20C]-576 181.3 μg/mL, antibiotic 250 μg/mL
[30] = M[20C]-576 181.3 μg/mL, antibiotic 500 μg/mL
[31] = M[20C]-576 181.3 μg/mL, antibiotic 1000 μg/mL
[32] = M[20C]-576 181.3 μg/mL, antibiotic 2000 μg/mL
[33] = M[20C]-576 181.3 μg/mL, antibiotic 4000 μg/mL

CC1(C)S[C@@H]2[C@H](NC(=O)[C@H](N)c3ccccc3)C(=O)N2[C@H]1C(=O)O [Ampicillin]
planktonic growth relative to the growth in the absence of both extract and antibiotic (B-A17; [1]): 176% | planktonic growth relative to the growth in the absence of both extract and antibiotic (B-A17; [2]): 176% | planktonic growth relative to the growth in the absence of both extract and antibiotic (B-A17; [3]): 148% | planktonic growth relative to the growth in the absence of both extract and antibiotic (B-A17; [4]): 131% | planktonic growth relative to the growth in the absence of both extract and antibiotic (B-A17; [5]): 112% | planktonic growth relative to the growth in the absence of both extract and antibiotic (B-A17; [6]): 2% | planktonic growth relative to the growth in the absence of both extract and antibiotic (B-A17; [7]): 0% | planktonic growth relative to the growth in the absence of both extract and antibiotic (B-A17; [8]): 0% | planktonic growth relative to the growth in the absence of both extract and antibiotic (B-A17; [9]): 0% | planktonic growth relative to the growth in the absence of both extract and antibiotic (B-A17; [10]): 0% | planktonic growth relative to the growth in the absence of both extract and antibiotic (B-A17; [11]): −1% | planktonic growth relative to the growth in the absence of both extract and antibiotic (B-A17; [12]): 64% | planktonic growth relative to the growth in the absence of both extract and antibiotic (B-A17; [13]): 76% | planktonic growth relative to the growth in the absence of both extract and antibiotic (B-A17; [14]): 75% | planktonic growth relative to the growth in the absence of both extract and antibiotic (B-A17; [15]): 58% | planktonic growth relative to the growth in the absence of both extract and antibiotic (B-A17; [16]): 18% | planktonic growth relative to the growth in the absence of both extract and antibiotic (B-A17; [17]): 1% | planktonic growth relative to the growth in the absence of both extract and antibiotic (B-A17; [18]): 0% | planktonic growth relative to the growth in the absence of both extract and antibiotic (B-A17; [19]): 0% | planktonic growth relative to the growth in the absence of both extract and antibiotic (B-A17; [20]): 0% | planktonic growth relative to the growth in the absence of both extract and antibiotic (B-A17; [21]): 0% | planktonic growth relative to the growth in the absence of both extract and antibiotic (B-A17; [22]): 0% | planktonic growth relative to the growth in the absence of both extract and antibiotic (B-A17; [23]): 52% | planktonic growth relative to the growth in the absence of both extract and antibiotic (B-A17; [24]): 53% | planktonic growth relative to the growth in the absence of both extract and antibiotic (B-A17; [25]): 52% | planktonic growth relative to the growth in the absence of both extract and antibiotic (B-A17; [26]): 31% | planktonic growth relative to the growth in the absence of both extract and antibiotic (B-A17; [27]): 7% | planktonic growth relative to the growth in the absence of both extract and antibiotic (B-A17; [28]): −4% | planktonic growth relative to the growth in the absence of both extract and antibiotic (B-A17; [29]): −4% | planktonic growth relative to the growth in the absence of both extract and antibiotic (B-A17; [30]): −4% | planktonic growth relative to the growth in the absence of both extract and antibiotic (B-A17; [31]): −4% | planktonic growth relative to the growth in the absence of both extract and antibiotic (B-A17; [32]): −5% | planktonic growth relative to the growth in the absence of both extract and antibiotic (B-A17; [33]): −1% | planktonic growth relative to the growth in the absence of both extract and antibiotic (B-A21; [1]): 153% | planktonic growth relative to the growth in the absence of both extract and antibiotic (B-A21; [2]): 132% | planktonic growth relative to the growth in the absence of both extract and antibiotic (B-A21; [3]): 131% | planktonic growth relative to the growth in the absence of both extract and antibiotic (B-A21; [4]): 132% | planktonic growth relative to the growth in the absence of both extract and antibiotic (B-A21; [5]): 116% | planktonic growth relative to the growth in the absence of both extract and antibiotic (B-A21; [6]): 150% | planktonic growth relative to the growth in the absence of both extract and antibiotic (B-A21; [7]): 113% | planktonic growth relative to the growth in the absence of both extract and antibiotic (B-A21; [8]): 112% | planktonic growth relative to the growth in the absence of both extract and antibiotic (B-A21; [9]): 106% | planktonic growth relative to the growth in the absence of both extract and antibiotic (B-A21; [10]): −1% | planktonic growth relative to the growth in the absence of both extract and antibiotic (B-A21; [11]): 0% | planktonic growth relative to the growth in the absence of both extract and antibiotic (B-A21; [12]): 108% | planktonic growth relative to the growth in the absence of both extract and antibiotic (B-A21; [13]): 83% | planktonic growth relative to the growth in the absence of both extract and antibiotic (B-A21; [14]): 82% | planktonic growth relative to the growth in the absence of both extract and antibiotic (B-A21; [15]): 82% | planktonic growth relative to the growth in the absence of both extract and antibiotic (B-A21; [16]): 74% | planktonic growth relative to the growth in the absence of both extract and antibiotic (B-A21; [17]): 83% | planktonic growth relative to the growth in the absence of both extract and antibiotic (B-A21; [18]): 75% | planktonic growth relative to the growth in the absence of both extract and antibiotic (B-A21; [19]): 83% | planktonic growth relative to the growth in the absence of both extract and antibiotic (B-A21; [20]): 0% | planktonic growth relative to the growth in the absence of both extract and antibiotic (B-A21; [21]): 0% | planktonic growth relative to the growth in the absence of both extract and antibiotic (B-A21; [22]): 0% | planktonic growth relative to the growth in the absence of both extract and antibiotic (B-A21; [23]): 44% | planktonic growth relative to the growth in the absence of both extract and antibiotic (B-A21; [24]): 63% | planktonic growth relative to the growth in the absence of both extract and antibiotic (B-A21; [25]): 70% | planktonic growth relative to the growth in the absence of both extract and antibiotic (B-A21; [26]): 69% | planktonic growth relative to the growth in the absence of both extract and antibiotic (B-A21; [27]): 70% | planktonic growth relative to the growth in the absence of both extract and antibiotic (B-A21; [28]): 62% | planktonic growth relative to the growth in the absence of both extract and antibiotic (B-A21; [29]): 62% | planktonic growth relative to the growth in the absence of both extract and antibiotic (B-A21; [30]): 61% | planktonic growth relative to the growth in the absence of both extract and antibiotic (B-A21; [31]): −2% | planktonic growth relative to the growth in the absence of both extract and antibiotic (B-A21; [32]): −3% | planktonic growth relative to the growth in the absence of both extract and antibiotic (B-A21; [33]): −2%
